In one experiment the target is T1, CXCR-2 (Homo sapiens, UniProt P25025).
T1 sequence (P25025 1-360): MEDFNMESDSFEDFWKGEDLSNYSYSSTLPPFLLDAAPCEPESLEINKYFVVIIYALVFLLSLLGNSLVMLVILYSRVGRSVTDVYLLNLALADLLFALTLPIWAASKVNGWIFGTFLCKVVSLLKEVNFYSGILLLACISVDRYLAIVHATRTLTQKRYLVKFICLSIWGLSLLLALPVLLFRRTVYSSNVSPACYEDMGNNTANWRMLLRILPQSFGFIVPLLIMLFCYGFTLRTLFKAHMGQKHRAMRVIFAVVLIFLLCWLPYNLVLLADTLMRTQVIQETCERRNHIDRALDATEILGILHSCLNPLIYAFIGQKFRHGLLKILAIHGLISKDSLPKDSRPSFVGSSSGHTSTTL
As to conditions: cited from earlier work.

The subject of the next experiment is PBMCs. The experiment can be described thus: Cell migration (chemotaxis) assay, PBMC counts. Format: cell-based. Conditions: 10 μM; MSU crystal conditioned media; FIG. 1B. The procedure:
Primary blood monocytes (PMBC) were obtained from the lymphocyte layer (buffy coat) of peripheral blood from normal donors. Each leukopack (Interstate Blood Bank) was diluted with an equal volume of PBS, and 35 mL of blood preparation was over-laid onto 15 mL of Ficoll-Paque™ PLUS (GE Healthcare Bio-Sciences). Tubes were centrifuged at 700×g without breaks for 30 minutes at room temperature. The buffy coat interface was removed, added to PBS (40 mL), and centrifuged at 300×g. Any remaining erythrocytes in the cell pellet were lysed by incubating cells in red blood cell lysis buffer (10 mL, R&D Systems) for 10 minutes at room temperature. Following lysis, PBS (40 mL) was added and the cells centrifuged for 5 minutes at 200×g. The pellet was washed once with PBS and re-suspended in complete RPMI and seeded onto a BD Falcon™ 100 mm tissue culture dish (Cat. No. 353003). After one hour, the media was aspirated and the adherent cells (predominantly monocytes) were harvested using a cell scraper and used in chemotaxis assays. Chemotaxis was assayed in 48-well plates with BD Falcon FluoroBlok Multiwell inserts with 3 μm pores (Cat. No. 351161 or 351162) coated with hFN. […] Fluorescence emitted from cells that had migrated to the bottom surface of the insert was measured at various time points. Cells labeled with Calcein AM were read at 485/530 nm (Ex/Em) wavelength. […]

The next experiment concerns neutrophils. The experiment in a line: Cell migration (chemotaxis) assay, neutrophil counts. Format: cell-based. Conditions: 10 μM; MSU-conditioned media; FIG. 1A.

Take `O=C(Nc1ccc(Cl)c(S(=O)(=O)N2CCNCC2)c1O)Nc1cccc(F)c1Cl` [Compound 1, 1-(4-chloro-2-hydroxy-3-(piperazin-1-ylsulfonyl)phenyl)-3-(2-chloro-3-fluorophenyl)urea]: the “inhibit CXCR-2” value at CXCR-2 is on record as “shown to inhibit CXCR-2”. Also, in the experiment on PBMCs, the “inhibition in migration in PBMCs” value is on record as “significant inhibition in migration”. The “inhibition of migration in neutrophils” value in the experiment on neutrophils was “significant inhibition of migration”.

The values above are taken from patent US10772886B2, “CXCR-2 inhibitors for treating crystal arthropathy disorders” (ARDEA BIOSCIENCES, INC., priority 2016, dated 2020).
